Measurements from patent publication US5478939A, “(R,R) and (S,S) 2,5-diazabicyclo [2,2,1]heptane derivatives” (priority 1994, dated 1995).
Counter-ions that a name gives are not always drawn.

Legend:
[1] = target: muscarinic cholinergic receptor (high affinity agonist conformation); test: [3H]-cis-Methyldioxolane (3H-CD) Binding Assay (High Affinity), cerebral cortex; details: 3H-CD 1.0 nM, rat cerebral cortex, 25° C., 120 minutes, pH 7.4; read-out: Ki, ^3 H-CD (ctx)
[2] = target: muscarinic cholinergic receptor; test: [3H] Quinuclidinyl Benzilate (QNB) Binding Assay, cerebral cortex; details: 3H-QNB 0.25 nM, rat cerebral cortex, 25° C., 120 minutes, pH 7.4; read-out: Ki, ^3 H-QNB (ctx)

Structure (SMILES) | Ki [1] [µM] | Ki [2] [µM]
CC(C)(C)OC(=O)N1C[C@H]2C[C@@H]1CN2c1cnccn1 [Example 3, (R,R)-2-(tert-Butyloxycarbonyl)-5-(2-pyrazinyl)-2,5-diazabicyclo[2.2.1]heptane] | > 1000 | –
Cc1nsc(N2C[C@H]3C[C@@H]2CN3C(=O)OC(C)(C)C)n1 [Example 5] | 59 | > 1000
CC(C)(C)OC(=O)N1C[C@H]2C[C@@H]1CN2c1ncns1 [Example 7] | > 1000 | –
CC(C)(C)OC(=O)N1C[C@@H]2C[C@H]1CN2c1ncns1 [Example 8, (S,S)-2-(tert-Butyloxycarbonyl)-5-(1,2,4-thiadiazol-5-yl)-2,5-diazabicyclo[2.2.1]heptane] | 97 | –
Cc1noc(N2C[C@H]3C[C@@H]2CN3C(=O)OC(C)(C)C)n1 [Example 9, (R,R)-2-(tert-Butyloxycarbonyl)-5-(3-methyl-1,2,4-oxadiazol-5-yl)-2,5-diazabicyclo[2.2.1]heptane] | 18.2 | –
Cc1noc(N2C[C@@H]3C[C@H]2CN3C(=O)OC(C)(C)C)n1 [Example 10] | 43.2 | –
c1cnc(N2C[C@H]3C[C@@H]2CN3)cn1 [Example 11, (R,R)-2-(2-Pyrazinyl)-2,5-diazabicyclo[2.2.1]heptane hydrochloride] | 0.1 | 3.1
c1cnc(N2C[C@@H]3C[C@H]2CN3)cn1 [Example 12, (S,S)-2-(2-Pyrazinyl)-2,5-diazabicyclo[2.2.1]heptane hydrochloride] | 1.3 | 11.4
Cc1nsc(N2C[C@@H]3C[C@H]2CN3)n1 [Example 13, (S,S)-2-(3-Methyl-1.2,4-thiadiazol-5-yl)-2,5-diazabicyclo[2.2.1]heptane] | 13 | –
Cc1nsc(N2C[C@H]3C[C@@H]2CN3)n1 [Example 14, (R,R)-2-(3-Methyl-1,2,4-thiadiazol-5-yl)-2,5-diazabicyclo[2.2.1]heptane] | 0.9 | 24.7
c1nsc(N2C[C@@H]3C[C@H]2CN3)n1 [Example 15, (S,S)-2-(1,2,4-Thiadiazol-5-yl)-2,5-diazabicyclo[2.2.1]heptane] | 29.5 | > 1000
c1nsc(N2C[C@H]3C[C@@H]2CN3)n1 [Example 16, (R,R)-2-(1,2,4-Thiadiazol-5-yl) -2,5-diazabicyclo[2.2.1]heptane] | 0.3 | > 1000
Cc1noc(N2C[C@@H]3C[C@H]2CN3)n1 [Example 17, (S,S)-2-(3-Methyl-1,2,4-oxadiazol-5-yl)-2,5-diazabicyclo[2.2.1]heptane] | 5.4 | > 1000
Cc1noc(N2C[C@H]3C[C@@H]2CN3)n1 [Example 18, (R,R)-2-(3-Methyl-1,2,4-oxadiazol-5-yl)-2,5-diazabicyclo[2.2.1]heptane] | 0.4 | 47.2
CN1C[C@@H]2C[C@H]1CN2c1cnccn1 [Example 19, (S,S)-2-Methyl-5-(2-pyrazinyl)-2,5-diazabicyclo[2.2.1]heptane] | 0.4 | 5.5
Cc1cnc(C)c(N2C[C@@H]3C[C@H]2CN3C)n1 [Example 22, (S,S)-2-(3,6-Dimethylpyrazin-2-yl)-5-methyl-2,5-diazabicyclo[2,2.1]heptane] | 0.7 | 1.2
CN1C[C@@H]2C[C@H]1CN2c1nccnc1Cl [Example 23, (S,S)-2-(3-Chloropyrazin-2-yl)-5-methyl-2,5-diazabicyclo[2.2.1]heptane] | 0.9 | 2.3
CN1C[C@@H]2C[C@H]1CN2c1cncc(Cl)n1 [Example 24, (S,S)-2-(6-Chloropyrazin-2-yl)-5-methyl-2.5-diazabicyclo[2.2.1]heptane] | 2 | 4.5
Cc1nsc(N2C[C@@H]3C[C@H]2CN3C)n1 [Example 26, (S,S)-2-Methyl-5-(3-methyl-1,2,4-thiadiazol-5-yl)-2,5-diazabicyclo[2.2.1]heptane] | 0.2 | 0.5
CN1C[C@@H]2C[C@H]1CN2c1sccc1[N+](=O)[O-] [Example 28, (S,S)-2-Methyl-5-(3-nitro-2-thienyl)-2,5-diazabicyclo[2.2.1]heptane] | 9.8 | > 1000
CN1C[C@@H]2C[C@H]1CN2c1ccc([N+](=O)[O-])s1 [Example 29, (S,S)-2-Methyl-5-(5-nitro-2-thienyl)-2,5-diazabicyclo[2.2.1]heptane] | 6.8 | 13.2
CN1C[C@@H]2C[C@H]1CN2c1ccccc1[N+](=O)[O-] [Example 30, (S,S)-2-Methyl-5-(2-nitrophenyl)-2,5-diazabicyclo[2.2.1]heptane] | 1.1 | 1.6
COc1cncc(N2C[C@@H]3C[C@H]2CN3C)n1 [Example 32, (S,S)-2-Methyl-5-(6-methoxypyrazin-2-yl)-2,5-diazabicyclo[2.2.1]heptane] | 0.3 | 0.4
Cc1nccnc1N1C[C@@H]2C[C@H]1CN2C [Example 35, (S,S)-2-Methyl-5-(3-methylpyrizin-2-yl)-2,5-diazabicyclo[2.2.1]heptane] | 1.7 | 6.3
CN1C[C@H]2C[C@@H]1CN2c1cnccn1 [Example 36, (R,R)-2-Methyl-5-(2-pyrazinyl)-2,5-diazabicyclo[2.2.1]heptane] | 6.4 | > 1000
